Assay results: patent publication US20240409536A1, “COMPOUNDS AND METHODS FOR MODULATING SPLICING” (REMIX THERAPEUTICS INC., priority 2021, published 2024)
Like-named read-outs stand apart in the source and are kept apart here.

Key:
[1] = system: SMN2 mRNA; assay: Gene panel canonical junction qPCR assay, SMN2 CJ mRNA decrease; type: cell-based, human; settings: decrease in CJ mRNA levels, read-out: SMN2 IC50
Method: (§1) Compounds described herein were used to modulate RNA transcript abundance in cells. The expression of a target mRNA was measured by detecting the formation of an exon-exon junction in the canonical transcript (CJ). A compound mediated exon-inclusion event was detected by observing an increase in formation of a new junction with an alternative exon (AJ). Real-time qPCR assays were used to detect these splicing switches and interrogate the potency of various compounds towards different target genes. A high-throughput real time quantitative PCR (RT-qPCR) assay was developed to measure these two isoforms of the mRNA (CJ and AJ) for exemplary genes, such as HTT, SMN2, and MYB, together with a control housekeeping gene, GAPDH or GUSB or PPIA, used for normalization. Briefly, the A673 or K562 cell line was treated with various compounds described herein (e.g., compounds of Formula (I), (I), or (III)). After treatment, the levels of the HTT, MYB, or SMN2 mRNA targets were determined from each sample of cell lysate by cDNA synthesis followed by qPCR.
(§2) The data analysis was performed by first determining the ΔCt vs the housekeeper gene. This ΔCt was then normalized against the DMSO control (ΔΔCt) and converted to RQ (relative quantification) using the 2^(−ΔΔCt) equation. The RQ were then converted to a percentage response by arbitrarily setting an assay window of 3.5 and 4.0 ΔCt for HTT-CJ and MYB-CJ respectively and an assay window of 9 and 3 ΔCt for HTT-AJ and MYB-AJ in 96 well format (50,000 K562 cells/well and 15,000 A673 cells per well) and an assay window of 3 and 4 ΔCt for HTT-CJ and MYB-CJ respectively and an assay window of 5 and 3 ΔCt for HTT-AJ and MYB-AJ respectively in 384 well format (8,000 K562 cells/well example). […] The percentage response was then fitted to the 4 parametric logistic equation to evaluate the concentration dependence of compound treatment. The increase in AJ mRNA is reported as AC50 (compound concentration having […] in AJ increase) while the decrease in CJ mRNA levels is reported as IC50 (compound concentration having 50) response in CJ decrease).
(§3) Additional studies were carried out for a larger panel of genes using the protocol provided above. The junction between flanking upstream and downstream exons was used to design canonical junction qPCR assays. At least one of the forward primer, reverse primer or the CY5-labeled 5′ nuclease probe (with 3′ quencher such as ZEN/Iowa Black FQ) was designed to overlap with the exon junction to capture the CJ mRNA transcript. BLAST was used to confirm the specificity of the probeset and parameters such as melting temperature, GC content, amplicon size, and primer dimer formation are considered during their design. Data for the decrease in CJ mRNA levels for four exemplary genes (HTT, SMN2, MYB, and Target C) analyzed in this panel are reported as IC50 (compound concentration having […] in CJ decrease).
(§4) A summary of the results from the panel is illustrated in Tables 5A and 51B, wherein “A” represents an IC50 of less than 100 nM; “B” represents an IC50 of between 100 nM and 1 μM; and “C” represents an IC50 of between 1 μM and 10 μM; and “D” represents an IC50 of greater than 10 μM.

[2] = system: MYB mRNA; assay: Gene panel canonical junction qPCR assay, MYB CJ mRNA decrease; type: cell-based, human; settings: decrease in CJ mRNA levels, read-out: MYB IC50
Method: as §1, §2, §3, §4

[3] = system: HTT mRNA; assay: Gene panel canonical junction qPCR assay, HTT CJ mRNA decrease; type: cell-based, human; settings: Homo sapiens, decrease in CJ mRNA levels, read-out: HTT IC50
Method: as §1, §2, §3, §4

[4] = system: Target C mRNA; assay: Gene panel canonical junction qPCR assay, Target C CJ mRNA decrease; type: cell-based; settings: Homo sapiens, decrease in CJ mRNA levels, read-out: Target C IC50
Method: as §1, §2, §3, §4

Compound	IC50 ([1]; Homo sapiens)	IC50 ([2]; Homo sapiens)	IC50 [3]	IC50 [4]	IC50 [1]	IC50 [2]
Cc1cn2cc(NC(=O)c3sc([C@@H]4CCN[C@@H](C)C4)cc3F)cc(F)c2n1 [Compound 591]	1 to 10 µM	< 0.1 µM	0.1 to 1 µM	0.1 to 1 µM	–	–
Cc1cn2cc(NC(=O)c3sc([C@H]4CCN[C@H](C)C4)cc3F)cc(F)c2n1 [Compound 592]	1 to 10 µM	0.1 to 1 µM	0.1 to 1 µM	1 to 10 µM	–	–
Cc1cn2cc(NC(=O)c3sc(N4CCN(C)C(C)C4)cc3F)cc(F)c2n1 (centres unmarked) [Compound 602]	> 10 µM	0.1 to 1 µM	> 10 µM	> 10 µM	–	–
Cc1cn2cc(NC(=O)c3sc(N4CCNC(C)(C)C4)cc3F)cc(F)c2n1 [Compound 604]	> 10 µM	1 to 10 µM	> 10 µM	> 10 µM	–	–
Cc1cn2cc(NC(=O)c3sc(N4CC(C)(C)NC(C)(C)C4)cc3F)cc(F)c2n1 [Compound 606]	> 10 µM	0.1 to 1 µM	1 to 10 µM	1 to 10 µM	–	–
Cc1cn2cc(NC(=O)c3sc(N4CC5(CNC5)C4)cc3F)cc(F)c2n1 [Compound 607]	> 10 µM	1 to 10 µM	> 10 µM	1 to 10 µM	–	–
Cc1cn2cc(NC(=O)c3sc(N4CC5(CN(C)C5)C4)cc3F)cc(F)c2n1 [Compound 608]	> 10 µM	1 to 10 µM	> 10 µM	> 10 µM	–	–
Cc1cn2cc(NC(=O)c3sc(N4CCC(N5CCCC5)C4)cc3F)cc(F)c2n1 (centres unmarked) [Compound 609]	1 to 10 µM	0.1 to 1 µM	1 to 10 µM	1 to 10 µM	–	–
Cc1cn2cc(NC(=O)c3sc(N4CCC(N(C)C)C4)cc3F)cc(F)c2n1 (centres unmarked) [Compound 611]	> 10 µM	0.1 to 1 µM	> 10 µM	1 to 10 µM	–	–
Cc1cn2cc(NC(=O)c3sc(N4CCN5CCCC5C4)cc3F)cc(F)c2n1 (centres unmarked) [Compound 612]	> 10 µM	1 to 10 µM	> 10 µM	1 to 10 µM	–	–
Cc1cn2cc(NC(=O)c3sc(N4CCC(N(C)C)CC4)cc3F)cc(F)c2n1 [Compound 613]	> 10 µM	0.1 to 1 µM	1 to 10 µM	> 10 µM	–	–
Cc1cn2cc(NC(=O)c3sc(N4CCC(NC(C)(C)C)CC4)cc3F)cc(F)c2n1 [Compound 614]	> 10 µM	1 to 10 µM	> 10 µM	> 10 µM	–	–
Cc1cn2cc(NC(=O)c3sc(C4CCNCC4)cc3F)cc(F)c2n1 [Compound 617]	–	–	1 to 10 µM	1 to 10 µM	1 to 10 µM	1 to 10 µM
Cc1cn2cc(NC(=O)c3sc(C4CCN(C)CC4)cc3F)cc(F)c2n1 [Compound 618]	1 to 10 µM	1 to 10 µM	> 10 µM	1 to 10 µM	–	–
CCN1CCC(c2cc(F)c(C(=O)Nc3cc(F)c4nc(C)cn4c3)s2)CC1 [Compound 619]	0.1 to 1 µM	< 0.1 µM	0.1 to 1 µM	0.1 to 1 µM	–	–
Cc1cn2cc(NC(=O)c3sc(C4CC(C)(C)NC(C)(C)C4)cc3F)cc(F)c2n1 [Compound 621]	1 to 10 µM	0.1 to 1 µM	0.1 to 1 µM	1 to 10 µM	–	–
Cc1cn2cc(NC(=O)c3sc(N(C)C4CC(C)(C)NC(C)(C)C4)cc3F)cc(F)c2n1 [Compound 622]	1 to 10 µM	< 0.1 µM	0.1 to 1 µM	0.1 to 1 µM	–	–
CC1CC(c2cc(F)c(C(=O)Nc3ccc4cn(C)nc4c3)s2)CCN1 (centres unmarked) [Compound 624]	> 10 µM	0.1 to 1 µM	> 10 µM	1 to 10 µM	–	–
CC1CC(c2cc(F)c(C(=O)Nc3cc(F)c4cn(C)nc4c3)s2)CCN1 (centres unmarked) [Compound 625]	1 to 10 µM	1 to 10 µM	1 to 10 µM	1 to 10 µM	–	–
Cc1nc2c(F)cc(NC(=O)c3sc(N4CCNC(C)C4)cc3F)cc2o1 (centres unmarked) [Compound 637]	> 10 µM	> 10 µM	> 10 µM	> 10 µM	–	–
